Test results published in patent US20080039430A1, “Pharmaceutical Compositions For The Treatment Of Leishmaniasis” (priority 2004, published 2008).

Legend:
intracellular amastigote = experiment: Intracellular amastigote proliferation in THP-1 differentiated macrophages, parasitic index; format: cell-based, Leishmania infantum; conditions: for IC50: Leishmania infantum, THP-1, read-out: IC50, intracellular growth of Leishmania infantum
Protocol: Thus, THP-1 differentiated macrophages were infected with stationary phase amastigotes at a host cell-parasite ratio of 5:1. After 4 hours, non adherent parasites were removed and nicotinamide was added to the medium at the appropriate concentration. After 3 days of incubation time, cells were fixed with methanol and stained with giemsa. Parasitic index PI (mean percentage of infected macrophages X number of amastigotes per macrophage) was determined. […] At this concentration a reduction of almost 70% of PI was observed.

SIRT1 = molecular target: T1, SIRT1 (Homo sapiens, UniProt Q96EB6); experiment: NAD-dependent deacetylase activity, cyclex SIR2 assay kit with SIRT1; format: biochemical
T1 construct: purchased MBL, Japan
T1 sequence (Q96EB6 1-747): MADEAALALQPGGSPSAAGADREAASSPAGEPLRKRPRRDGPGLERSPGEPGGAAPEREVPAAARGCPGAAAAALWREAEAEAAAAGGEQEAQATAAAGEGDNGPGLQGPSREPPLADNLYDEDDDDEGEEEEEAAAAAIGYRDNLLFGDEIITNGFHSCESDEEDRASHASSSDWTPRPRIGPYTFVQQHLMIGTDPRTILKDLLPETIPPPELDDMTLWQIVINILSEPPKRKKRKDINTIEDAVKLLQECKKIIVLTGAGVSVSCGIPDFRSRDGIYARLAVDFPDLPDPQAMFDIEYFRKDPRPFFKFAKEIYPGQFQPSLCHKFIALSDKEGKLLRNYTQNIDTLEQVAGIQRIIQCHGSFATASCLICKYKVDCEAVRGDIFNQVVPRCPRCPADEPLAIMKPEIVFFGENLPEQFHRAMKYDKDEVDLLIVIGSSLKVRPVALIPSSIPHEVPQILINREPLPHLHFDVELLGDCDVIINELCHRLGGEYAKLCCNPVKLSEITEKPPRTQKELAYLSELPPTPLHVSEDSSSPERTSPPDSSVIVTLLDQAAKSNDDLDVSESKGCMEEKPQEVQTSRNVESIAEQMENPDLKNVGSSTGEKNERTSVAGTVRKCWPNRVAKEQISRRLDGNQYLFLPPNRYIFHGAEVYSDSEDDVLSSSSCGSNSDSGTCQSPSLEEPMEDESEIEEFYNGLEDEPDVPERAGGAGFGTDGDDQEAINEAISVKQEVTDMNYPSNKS
Protocol: Therefore, complementary experiments were conducted in order to examine whether NAm could interfere with Leishmania deacetylase activity in vitro. To test this possibility, a commercially available “[…] SIR2 assay kit” and SIRT1 as a standard enzyme (MBL, Japan) were used.

Leishmania parasites = conditions: compared with NAm
[1] = tested on: L. infantum promastigotes; experiment: Growth of promastigotes in axenic culture, viable parasites by FACs analysis; format: cell-based
Protocol: (§1) The growth of Leishmania amastigotes and promastigotes was followed in axenic culture conditions in the presence or absence of NAm.
(§2) A cloned line of L. infantum (MHOM/MA/67/ITMAP-263) was used in all experiments. Each subculture was initiated at 5×10^5 parasites/ml of medium. Axenically grown amastigote forms of L. infantum were maintained at 37° C. with 5% CO2 by weekly subpassages in a cell-free medium called MAA/20 (medium for axenically grown amastigotes) in 25-ml flasks, as previously described (10). Promastigote forms were maintained at 26° C. by weekly subpassage in SDM 79 medium supplemented with 10% foetal calf serum (FCS) and 100 units/ml penicillin and 100 μg/ml streptomycin. Nicotinamide (SIGMA, St Louis) was added at the appropriate concentration and the mean number of viable parasites determined using FACs analysis, as previously described (11).

[2] = tested on: L. infantum axenic amastigotes; experiment: Growth of axenically grown amastigotes, viable parasites by FACs analysis; format: cell-based
Protocol: as §1, §2

[3] = tested on: L. amazonsensis amastigotes; experiment: Growth inhibition of L. amazonsensis amastigotes; format: cell-based
axenic amastigote = experiment: YOPRO-1 positive (apoptotic) axenic amastigotes; format: cell-based, L. infantum
Protocol: After 24, 48 and 72 hours of incubation aliquots (10^6 parasites) were collected, washed and incubated for 10 min with 10 μM of YO[…], an apoptotic cell marker (Molecular probes). The mean percentage of YO[…] positive cells was determined as previously described (9).

THP-1 monocytes = experiment: Growth and viability of THP-1 monocytes; format: cell-based; conditions: 3 days
Protocol: In a first series of experiments, THP-1 monocytes were incubated during 3 days with various concentrations of NAm and the growth and viability of cells were recorded. Up to 10 mM of NAm, no effect on cell growth and viability was observed. In contrast, 20 mM NAm inhibited the proliferation of THP-1 monocyte by about 45% in agreement with the values recorded for other cell types: SupT1 and PBLs cells (6).

LmSIR2 = molecular target: T2, LmSIR2 (Leishmania major, UniProt Q25337); experiment: NAD-dependent deacetylase activity in Leishmania extracts (pTEX-LmSIR2); format: biochemical; conditions: 5 mM NAm, 200 μM NAD
T2 construct: expressed in transfected cells; host or cells: Leishmania infantum (MHOM/MA/67/ITMAP-263) carrying pTEX-LmSIR2; NP40 lysate
Protocol: Having established a standard inhibitory assay, the effect of NAm was then examined on the NAD-dependent deacetylase activity contained in Leishmania extracts from mutant parasites carrying extra copies of LmSIR2 gene (pTEX-LmSIR2) or empty plasmid DNA (pTEX) (11).
Briefly, 2 10^5 parasites were collected and washed two times with PBS 0.01M pH 7.2 and incubated in a lysis solution (100 mM Tris-HCl, 150 mM NaCl, 1 mM EDTA, 1% NP40, 5 μM Trichostatin A, pH 8.8), cells were then centrifuged for 20 min at 10 000 rpm at 4° C. Deacetylase activity in the presence or absence of 200 μM NAD was measured. Results are expressed as relative F355/F460 counts=F355/F460 counts in the presence of NAD—F355/F460 counts in the absence of NAD. This allowed to discriminate between fluorescence due to the action of LmSIR2 to fluorescence due to the presence of compounds which could interfere with the test.

[4] = tested on: L. infantum amastigotes which overexpress LmSIR2; experiment: NAm-induced death of amastigotes overexpressing LmSIR2; format: cell-based; conditions: FIGS. 3A and 3B, growth inhibition and YOPRO-1 positive cells
Protocol: To further examine the possible correlation between the level of SIR2 expression and the sensitivity/resistance to NAm-induced Leishmania amastigotes death, NAm was added to cultures of mutant L. infantum amastigotes which overexpress LmSIR2 or carrying the empty pTEX plasmid as controls.

[5] = patient treated with accelerated radiotherapy for head and Neck cancer; cited from earlier work

T2 sequence (Q25337 whole entry): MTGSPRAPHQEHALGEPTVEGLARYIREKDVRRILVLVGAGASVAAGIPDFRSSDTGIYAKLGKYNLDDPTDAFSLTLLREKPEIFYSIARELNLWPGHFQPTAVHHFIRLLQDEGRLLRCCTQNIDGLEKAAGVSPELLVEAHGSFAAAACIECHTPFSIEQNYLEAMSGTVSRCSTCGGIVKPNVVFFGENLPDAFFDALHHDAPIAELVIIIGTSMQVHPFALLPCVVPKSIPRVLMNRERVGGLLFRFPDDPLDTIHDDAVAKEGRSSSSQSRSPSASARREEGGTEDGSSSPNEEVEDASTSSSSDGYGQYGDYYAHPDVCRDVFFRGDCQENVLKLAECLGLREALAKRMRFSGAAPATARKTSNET

Structure (SMILES)	IC50 (intracellular amastigote) [µM]	effect on enzymatic (deacetylase) activity of SIRT1 (SIRT1; 5 mM)	growth inhibitory activity towards Leishmania parasites (Leishmania parasites)	growth of promastigotes ([1]; 20 mM NAm)	proliferation of promastigotes ([1]; FIG. 1A, 10 mM or 20 mM NAm)	capacity of axenic amastigotes to proliferate ([2]; 20 mM NAm)	proliferation of amastigotes ([2]; FIG. 1B, 10 mM or 20 mM NAm)	growth inhibitory activity on L. amazonsensis amastigotes [3]	leishmanicidal effect, YOPRO-1 positive cells (axenic amastigote; 100 mM NAm, after 3 days of culture (FIG. 1C))	leishmanicidal activity, occurrence of YOPRO-1 positive cells (axenic amastigote; concentrations higher than 25 mM, 24, 48 and 72 hours)	inhibition at 20000 µM (THP-1 monocytes; Homo sapiens, THP-1, 72 h, 20 mM NAm, read-out: inhibition of proliferation of THP-1 monocyte) [%]	effect on cell growth and viability of THP-1 monocytes (THP-1 monocytes; up to 10 mM NAm)	inhibition of intracellular amastigote proliferation (intracellular amastigote; 2.5 mM NAm, vs control non treated cultures, p<0.05)	reduction of parasitic index (PI) (intracellular amastigote; 10 mM NAm, 3 days, THP-1 differentiated macrophages (maximal activity)) [%]	effect on enzymatic (deacetylase) activity of SIRT1 (SIRT1; 20 mM)	NAD dependent deacetylase activity in parasites overexpressing LmSIR2 (LmSIR2)	resistance to NAm-induced death from extra copies of LmSIR2 [4]	plasmatic concentration achievable [5] [mM]
O=C(O)c1cccnc1 [NicotAc, nicotinic acid]	< 2500	no significant effect	exerted a growth inhibitory activity towards Leishmania parasites, although at higher concentrations															
NC(=O)c1cccnc1 [NAm, nicotinamide]	< 2500	almost completely abrogated		a delay in the growth	strongly inhibited	virtually completely abrogated	strongly inhibited	sensitive	Maximal effect	strong dose-dependent leishmanicidal activity	~45	no effect	significantly inhibit	~70	almost completely abrogated	significantly inhibited	did not confer significant resistance	0.7 to 2.3
